For two compounds, IC50 results are on record in ChEMBL document CHEMBL5729088, “Thienodiazepine derivatives and application thereof” (2022).

The target in assay [1] is T1, Bromodomain-containing protein 4 (Homo sapiens, UniProt O60885). The assay is described as follows: (§1) BRD4 Biochemical Activity Test: The experiment plate was a plate that contained a gradient concentration of the compound and a corresponding DMSO solution and was prepared with ECHO before the experiment:a) The experiment plate was taken out, and 5 μL/well of “solution A” (protein solution) was added to columns 2-23 of the experiment plate, then 5 μL/well of 1× assay buffer was added to columns 1 and 24 of the experiment plate, and columns 1 and 24 were used as Min control in the experiment system;b) Centrifugation at 1000 rpm was carried out for 30 seconds;c) The plate was incubated at 23° C. for 20 minutes;d) After 20 minutes of incubation, 5 μL/well of “solution B” (polypeptide solution) was added to columns 1-24 of the experiment plate;e) Centrifugation at 1000 rpm was carried out for 30 seconds;f) The plate was incubated at 23° C. for 20 minutes;g) After 20 minutes of incubation, 5 μL/well of “solution C” (test reagent solution) was added to columns 1-24 of the experiment plate;h) Centrifugation at 1000 rpm was carried out for 30 seconds;i) The plate was incubated at 23° C. for 40 minutes;j) The experiment plate was placed on EnVision to read the plate.

The target of assay [2] is T1, Bromodomain-containing protein 4. The assay is described as §1. This is another data set of the same source.

SMILES strings stand for the structures.

In the case of `Cc1sc2c(c1C)C(c1ccc(Cl)cc1)=N[C@@H](CC(=O)Nc1ccc(O)c3c1COC3)c1nnc(C)n1-2`, the IC50 in assay [1] was found to be 21 nM; in assay [2], 100 nM.
Take `Cc1sc2c(c1C)C(c1ccc(Cl)cc1)=N[C@@H](CC(=O)Nc1ccc3c(c1)CS(=O)(=O)C3)c1nnc(C)n1-2`: the IC50 in assay [1] came out at 14 nM; in assay [2], 49 nM.
